The values below come from patent publication US20120202701A1, “AN ANTIBODY-GLYCAN COMPLEX TARGETING THE DISIALYL CORE II AND SIALYL LEWIS X STRUCTURES, AND USES THEREOF INVOLVING ANALYSIS OF STEM CELLS OR CANCER CELLS” (GLYKOS FINLAND OY, priority 2009, published 2012).

The test system of one assay is mAb CHO-131. Kind of assay: Glycan microarray analysis (Consortium for Functional Glycomics, printed array version 4.0), glycan binding of mAb CHO-131. The following applies: for RFU: mAb CHO-131 at 50 μg/ml, average RFU of 6 replicates after removal of highest and lowest values; for binding to CHO-131 antibody, in words: glycan microarray, as described. As for the experimental part: (§1) mAb CHO-131 was purchased from R&D Systems (MAB996). mAb CSLEX was purchased form BD Biosciences (551344). Glycan microarray analysis was carried out by the Consortium for Functional Glycomics. Glycan microarrays were printed as described (Blixt 2004). Version 4.0 of the printed glycan array was used for analysis. Binding analysis was performed at 50 μg/ml of antibody. Data are reported as average RFU of 6 replicates after removal of highest and lowest values.

The next assay deals with mAb CSLEX. Kind of assay: Glycan microarray analysis (Consortium for Functional Glycomics, printed array version 4.0), glycan binding of mAb CSLEX. The conditions noted are these: mAb CSLEX at 50 μg/ml; average RFU of 6 replicates after removal of highest and lowest values. As for the experimental part:
as §1

Consider `CC(=O)N[C@H]1[C@H](OCCN)O[C@H](COS(=O)(=O)O)[C@@H](O[C@@H]2O[C@H](COS(=O)(=O)O)[C@H](O)[C@H](O)[C@H]2O)[C@@H]1O` [compound 287], for which the RFU in the assay on mAb CHO-131 is 1306 RFU; with mAb CSLEX, 29 RFU. For `CC(=O)NC1C(O)CC(OC2C(O)C(COS(=O)(=O)O)OC(OC3C(CO)OC(OCCCN)C(NC(C)=O)C3OC3OC(C)C(O)C(O)C3O)C2O)(C(=O)O)OC1C(O)C(O)CO` (stereo not shown) [compound 220] the same measures were 36255 RFU and 22795 RFU. For `CC(=O)NC1C(O)CC(OC2C(O)C(CO)OC(OC3C(CO)OC(OC4C(O)C(CO)OC(OC5C(CO)OC(OC6C(O)C(CO)OC(OC7C(CO)OC(OCCN)C(NC(C)=O)C7OC7OC(C)C(O)C(O)C7O)C6O)C(NC(C)=O)C5OC5OC(C)C(O)C(O)C5O)C4O)C(NC(C)=O)C3OC3OC(C)C(O)C(O)C3O)C2O)(C(=O)O)OC1C(O)C(O)CO` (stereo not shown) [compound 242] the same measures were 29505 RFU and 31104 RFU. On to `CC(=O)N[C@H]1[C@H](O[C@H]2[C@@H](O)[C@@H](CO)O[C@@H](O[C@H]3[C@H](O[C@@H]4O[C@@H](C)[C@@H](O)[C@@H](O)[C@@H]4O)[C@@H](NC(C)=O)[C@H](O[C@H]4[C@@H](O)[C@@H](CO)O[C@@H](O[C@H]5[C@H](O[C@@H]6O[C@@H](C)[C@@H](O)[C@@H](O)[C@@H]6O)[C@@H](NC(C)=O)[C@H](OCCN)O[C@@H]5CO)[C@@H]4O)O[C@@H]3CO)[C@@H]2O)O[C@H](CO)[C@@H](O[C@@H]2O[C@H](CO)[C@H](O[C@H]3O[C@H](CO)[C@@H](O)[C@H](O)[C@H]3NC(C)=O)[C@H](O)[C@H]2O)[C@@H]1O` [compound 337], for which, in the assay on mAb CHO-131, the “binding to CHO-131 antibody, in words” value was “some binding” and the RFU is 706 RFU. In the assay with mAb CSLEX, this molecule displayed an RFU of 41 RFU. For `CC(=O)NC1C(O)CC(OC2C(O)C(CO)OC(OC3C(CO)OC(OCCCN)C(NC(C)=O)C3OC3OC(C)C(O)C(O)C3O)C2O)(C(=O)O)OC1C(O)C(O)CO` (stereo not shown) [compound 244] the same measures were “ligand for the antibody”, 34336 RFU and 19491 RFU.

`CC(=O)N[C@H]1[C@H](O[C@H]2[C@@H](O)[C@@H](CO)O[C@@H](O[C@@H]3[C@@H](NC(C)=O)[C@H](OCCN)O[C@H](CO)[C@H]3O[C@@H]3O[C@@H](C)[C@@H](O)[C@@H](O)[C@@H]3O)[C@@H]2O)O[C@H](CO)[C@@H](O[C@@H]2O[C@@H](C)[C@@H](O)[C@@H](O)[C@@H]2O)[C@@H]1O[C@@H]1O[C@H](CO)[C@H](O)[C@H](O)[C@H]1O` [compound 266] came in with an RFU in the assay on mAb CSLEX of 29 RFU. With `CC(=O)NC1C(OCCCN)OC(CO)C(OC2OC(CO)C(O)C(OC3OC(CO)C(OC4OC(CO)C(O)C(OC5(C(=O)O)CC(O)C(NC(C)=O)C(C(O)C(O)CO)O5)C4O)C(OC4OC(C)C(O)C(O)C4O)C3NC(C)=O)C2O)C1O` (stereo not shown) [compound 246], the RFU is 24587 RFU in the assay on mAb CHO-131 and 27193 RFU in the assay on mAb CSLEX. In the same order, the values of `CC(=O)NC1C(OCCCN)OC(CO)C(O)C1OC1OC(C(=O)O)C(O)C(O)C1O` (stereo not shown) [compound 299] are 5434 RFU and 39 RFU.

Regarding `CC(=O)NC1C(OCCCN)OC(CO)C(OC2OC(COS(=O)(=O)O)C(O)C(OC3(C(=O)O)CC(O)C(NC(C)=O)C(C(O)C(O)CO)O3)C2O)C1O` (stereo not shown) [compound 43], the RFU in the assay on mAb CHO-131 came to 22706 RFU; in the assay on mAb CSLEX, 12653 RFU. In the assay with mAb CSLEX, `CC(=O)N[C@H]1[C@H](O[C@H]2[C@@H](O)[C@@H](CO)O[C@@H](OCCCN)[C@@H]2O)O[C@H](CO)[C@@H](O)[C@@H]1O` [compound 171] returned an RFU of 106 RFU. On the same count and under the same terms, to `CC(=O)N[C@H]1[C@H](OCCN)O[C@H](CO)[C@@H](O[C@@H]2O[C@H](CO)[C@H](O)[C@H](O[C@H]3O[C@H](CO)[C@H](O)[C@H](O)[C@H]3NC(C)=O)[C@H]2O[C@@H]2O[C@@H](C)[C@@H](O)[C@@H](O)[C@@H]2O)[C@@H]1O` [compound 82] belongs 30 RFU. Still for that read-out and setting: to `CC(=O)N[C@H]1[C@H](O[C@H]2[C@@H](O)[C@@H](CO)O[C@H](OCCCN)[C@@H]2NC(C)=O)O[C@H](CO)[C@H](O)[C@@H]1O` [compound 91] belongs 56 RFU. Consider `CC(=O)NC1C(OCCN)OC(CO)C(OC2OC(CO)C(O)C(OC3(C(=O)O)CC(O)C(NC(=O)CO)C(C(O)C(O)CO)O3)C2O)C1OC1OC(C)C(O)C(O)C1O` (stereo not shown) [compound 271], for which the RFU was determined as 9521 RFU in the assay with mAb CHO-131 and 4766 RFU in the assay with mAb CSLEX. As for `CC(=O)N[C@H]1[C@H]([C@H](O)[C@H](O)CO)O[C@@](OC[C@H]2O[C@@H](O[C@H]3[C@H](O)[C@@H](O)[C@H](OCCN)O[C@@H]3CO)[C@H](O)[C@@H](O)[C@H]2O)(C(=O)O)C[C@@H]1O` [compound 261], in the assay on mAb CSLEX, the RFU amounted to 45 RFU. The same measure, in the same setting: the result for `CC(=O)N[C@H]1[C@H](O[C@H]2[C@@H](O)[C@@H](CO)O[C@@H](O[C@H]3[C@H](O)[C@@H](O)[C@H](OCCN)O[C@@H]3CO)[C@@H]2O)O[C@H](CO)[C@@H](O[C@@H]2O[C@H](CO)[C@H](O)[C@H](O)[C@H]2O)[C@@H]1O` [compound 155] reads 29 RFU. As for `CC(=O)NC1C(O)CC(OC2C(O)C(CO)OC(OC3C(CO)OC(OC4C(O)C(CO)OC(OCCCN)C4O)C(NC(C)=O)C3OC3OC(C)C(O)C(O)C3O)C2O)(C(=O)O)OC1C(O)C(O)CO` (stereo not shown) [compound 245], in the assay with mAb CHO-131, the “binding to CHO-131 antibody, in words” value is recorded as “third best ligand structure” and the RFU is 33335 RFU. The molecule further yielded an RFU with mAb CSLEX of 22997 RFU. Molecule `CC(=O)N[C@H]1[C@H](OCCCN)O[C@H](CO)[C@@H](O[C@@H]2O[C@H](CO)[C@H](O[C@@H]3O[C@H](CO)[C@@H](O)[C@H](O)[C@H]3NC(C)=O)[C@H](O)[C@H]2O)[C@@H]1O` [compound 178] returned an RFU with mAb CSLEX of 33 RFU. Consider `CC(=O)NC1C(O)CC(OC2C(O)C(CO)OC(OC3C(CO)OC(OCCN)C(NC(C)=O)C3OC3OC(C)C(O)C(O)C3O)C2O)(C(=O)O)OC1C(O)C(O)CO` (stereo not shown) [compound 243], for which the “binding to CHO-131 antibody, in words” value in the assay with mAb CHO-131 is “somewhat weaker binding”. The RFU in the assay with mAb CHO-131 came out at 20068 RFU; with mAb CSLEX, 13988 RFU. Molecule `NCCCO[C@@H]1O[C@H](CO[C@@H]2O[C@H](CO)[C@@H](O)[C@H](O)[C@H]2O)[C@@H](O)[C@H](O)[C@H]1O` [compound 190] yielded an RFU in the assay on mAb CSLEX of 28 RFU. Turning to `CC(=O)NC1C(O)CC(OC2C(O)C(OC3C(CO)OC(OCCN)C(O)C3O)OC(CO)C2OC2OC(CO)C(O)C(OC3OC(CO)C(O)C(O)C3O)C2NC(C)=O)(C(=O)O)OC1C(O)C(O)CO` (stereo not shown) [compound 135], the RFU with mAb CSLEX was determined as 28 RFU. As to `CC(=O)N[C@H]1[C@H](OCCN)O[C@H](CO)[C@@H](O[C@@H]2O[C@H](CO[C@]3(C(=O)O)C[C@H](O)[C@@H](NC(C)=O)[C@H]([C@H](O)[C@H](O)CO)O3)[C@H](O)[C@H](O)[C@H]2O)[C@@H]1O` [compound 257], in the assay on mAb CSLEX, the RFU was determined as 424 RFU. On the same count and under the same terms, the result for `CC(=O)N[C@H]1[C@H](O[C@@H]2[C@H](O[C@]3(C(=O)O)C[C@H](O)[C@@H](NC(C)=O)[C@H]([C@H](O)[C@@H](CO)O[C@]4(C(=O)O)C[C@H](O)[C@@H](NC(C)=O)[C@H]([C@H](O)[C@@H](CO)O[C@]5(C(=O)O)C[C@H](O)[C@@H](NC(C)=O)[C@H]([C@H](O)[C@@H](CO)O[C@]6(C(=O)O)C[C@H](O)[C@@H](NC(C)=O)[C@H]([C@H](O)[C@H](O)CO)O6)O5)O4)O3)[C@@H](O)[C@H](O[C@H]3[C@H](O)[C@@H](O)[C@H](OCCN)O[C@@H]3CO)O[C@@H]2CO)O[C@H](CO)[C@H](O)[C@@H]1O` [compound 215] reads 53 RFU.
